According to publication PMC10786919, “Design-rules for stapled peptides with in vivo activity and their application to Mdm2/X antagonists” (Nature Communications, 2024):
Values after ≈ are worked out from the molar mass of the structure shown. Like-named read-outs stand apart in the source and are kept apart here. Positions of bridges follow the written chain, without caps; N, C: chain ends. Non-standard residues stand in square brackets, D forms with d. Residues, ends and D or L forms follow the SMILES beside them. Lys(N3) = [N-]=[N+]=NCCCC[C@H](N)C(=O)O; hArg = N=C(N)NCCCC[C@H](N)C(=O)O; R8 = C=CCCCCCC[C@@](C)(N)C(=O)O; Cba = N[C@@H](CC1CCC1)C(=O)O; S5 = C=CCCC[C@](C)(N)C(=O)O; βAla = NCCC(=O)O; Sar = CNCC(=O)O

What was measured:
in vitro = experiment: in vitro
Summary of the method: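 Azido-peptide permeability was read as loss of NanoBRET signal (donor 450 nm, acceptor 610 nm) after adding NanoBret618-azide at 10 μM final.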

[1] = Lactate dehydrogenase (LDH) release assay; type: cell-based
Summary of the method: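 Membrane damage measured as lactate dehydrogenase release (CytoTox-ONE kit) from p53-responsive β-lactamase reporter HCT116 cells plated at 8000 per well. Final DMSO 0.5%; geometric mean reported from a minimum of three biological replicates.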

[2] = Experimental LogD (partition coefficient); conditions: for logD: not stated, Partition Coeff LogD
[3] = Solubility assay (kinetic solubility, PBS pH 7); type: physicochemical; conditions: pH 7, PBS; for solubility kinetic: pH 7, aqueous buffer, kinetic from dmso stock, read-out: Solubility
Summary of the method: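 Quantitation uses an external standard at 100 µM, prepared from 10 mM stock in acetonitrile:methanol:DMSO (10:80:10). Solubility (µM) = (peak area of sample ÷ peak area of standard) × standard concentration.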

[4] = Nanoclick permeability assay EC50

| Compound | cell entry EC50 (in vitro; [4]) | EC50 ([1]; LDH: Cytotoxicity assay: EC50) | logD [2] | EPSA (physchem) | solubility kinetic [3] | Partition Coeff LogD [2] | Solubility [3] | cell entry EC50 (in vitro) | EC50 ([1]; 0% FBS 4Hr, read-out: LDH: Cytotoxicity assay: EC50) | EC50 ([1]; 4 hours, 0% serum, read-out: LDH Cytotoxicity assay EC50) |
| --- | --- | --- | --- | --- | --- | --- | --- | --- | --- | --- |
| CC(=O)N[C@@H](CCCCN=[N+]=[N-])C(=O)NCCC(=O)N[C@@H](CC(C)C)C(=O)N[C@H](C(=O)N[C@@H](Cc1ccccc1)C(=O)N[C@]1(C)CCCCCCC=CCCC[C@@](C)(C(=O)N[C@@H](CO)C(=O)N[C@@H](C)C(=O)N[C@@H](C)C(N)=O)NC(=O)[C@H](CC2CCC2)NC(=O)CNC(=O)[C@H](C)NC(=O)[C@H](Cc2c[nH]c3ccccc23)NC(=O)[C@H](Cc2ccc(O)cc2)NC(=O)[C@H](CCC(=O)O)NC1=O)[C@@H](C)O [MP-262] (Ac-[Lys(N3)][βAla]LTF[R8]EYWAG[Cba][S5]SAA-NH2; staple 6-13) | 106 nM | > 50600 nM | 2.85 | 207 A^2 | 87 µM (≈ 165 µg/mL) |  |  |  |  |  |
| CC(=O)N[C@@H](CCCCN=[N+]=[N-])C(=O)NCCC(=O)N[C@@H](CC(C)C)C(=O)N[C@H](C(=O)N[C@@H](Cc1ccccc1)C(=O)N[C@]1(C)CCCCCCC=CCCC[C@@](C)(C(=O)N[C@@H](CO)C(=O)N[C@@H](C)C(=O)N[C@@H](C)C(N)=O)NC(=O)[C@H](CC2CCC2)NC(=O)[C@H](CCC(N)=O)NC(=O)[C@H](C)NC(=O)[C@H](Cc2c[nH]c3ccccc23)NC(=O)[C@H](CCC(=O)O)NC(=O)[C@H](C)NC1=O)[C@@H](C)O [MP-029] (Ac-[Lys(N3)][βAla]LTF[R8]AEWAQ[Cba][S5]SAA-NH2; staple 6-13) | 70 nM | > 50700 nM |  | 182 A^2 |  | Poorly Behaved | Poorly Behaved |  |  |  |
| CC(=O)N[C@@H](CCCCN=[N+]=[N-])C(=O)NCCC(=O)N[C@@H](CCCCNC(=N)N)C(=O)N[C@H](C(=O)N[C@@H](Cc1ccccc1)C(=O)N[C@]1(C)CCCCCCC=CCCC[C@@](C)(C(=O)N[C@@H](CO)C(=O)N[C@@H](C)C(=O)N[C@@H](C)C(N)=O)NC(=O)[C@H](CC2CCC2)NC(=O)[C@H](CCC(N)=O)NC(=O)[C@H](C)NC(=O)[C@H](Cc2c[nH]c3ccccc23)NC(=O)[C@H](Cc2ccc(O)cc2)NC(=O)[C@H](CCC(=O)O)NC1=O)[C@@H](C)O [MP-6896] (Ac-[Lys(N3)][βAla][hArg]TF[R8]EYWAQ[Cba][S5]SAA-NH2; staple 6-13) | 1130 nM |  | 2.79 | 203 A^2 | 2.5 µM (≈ 5.07 µg/mL) |  |  |  |  |  |
| CC(=O)N[C@@H](CCCCN=[N+]=[N-])C(=O)NCCC(=O)N[C@@H](CC(C)C)C(=O)N[C@H](C(=O)N[C@@H](Cc1ccccc1)C(=O)N[C@]1(C)CCCCCCC=CCCC[C@@](C)(C(=O)N[C@@H](CO)C(=O)N[C@@H](C)C(=O)N[C@@H](C)C(N)=O)NC(=O)[C@H](CC2CCC2)NC(=O)[C@@H](C)NC(=O)[C@H](C)NC(=O)[C@H](Cc2c[nH]c3ccccc23)NC(=O)[C@H](Cc2ccc(O)cc2)NC(=O)[C@H](CCC(=O)O)NC1=O)[C@@H](C)O [MP-474] (Ac-[Lys(N3)][βAla]LTF[R8]EYWA[dA][Cba][S5]SAA-NH2; staple 6-13) | 148 nM | > 50000 nM | 3.07 | 222 A^2 | 156 µM (≈ 298 µg/mL) |  |  |  |  |  |
| CC(=O)N[C@@H](CCCCN=[N+]=[N-])C(=O)NCCC(=O)N[C@@H](CC(C)C)C(=O)N[C@H](C(=O)N[C@@H](C)C(=O)N[C@]1(C)CCCCCCC=CCCC[C@@](C)(C(=O)N[C@@H](CO)C(=O)N[C@@H](C)C(=O)N[C@@H](C)C(N)=O)NC(=O)[C@H](CC2CCC2)NC(=O)[C@H](CCC(N)=O)NC(=O)[C@H](C)NC(=O)[C@H](Cc2c[nH]c3ccccc23)NC(=O)[C@H](Cc2ccc(O)cc2)NC(=O)[C@H](CCC(=O)O)NC1=O)[C@@H](C)O [MP-892, AZIDE-ATSP-7041 (F3A)] |  |  | 2.54 | 201 A^2 | 101 µM (≈ 191 µg/mL) |  |  | 465 nM | > 50600 nM | > 50000 nM |
| CC(=O)N[C@@H](CCCCN=[N+]=[N-])C(=O)NCCC(=O)N(C)CC(=O)N[C@H](C(=O)N[C@@H](Cc1ccccc1)C(=O)N[C@]1(C)CCCCCCC=CCCC[C@@](C)(C(=O)N[C@@H](CO)C(=O)N[C@@H](C)C(=O)N[C@@H](C)C(N)=O)NC(=O)[C@H](CC2CCC2)NC(=O)[C@H](CCC(N)=O)NC(=O)[C@H](C)NC(=O)[C@H](Cc2c[nH]c3ccccc23)NC(=O)[C@H](Cc2ccc(O)cc2)NC(=O)[C@H](CCC(=O)O)NC1=O)[C@@H](C)O [MP-799] (Ac-[Lys(N3)][βAla][Sar]TF[R8]EYWAQ[Cba][S5]SAA-NH2; staple 6-13) | > 10000 nM | > 50600 nM | 2.6 | 219 A^2 | 82.5 µM (≈ 159 µg/mL) |  |  |  |  |  |
| CC(=O)N[C@@H](CCCCN=[N+]=[N-])C(=O)NCCC(=O)N[C@@H](CC(C)C)C(=O)N[C@H](C(=O)N[C@@H](Cc1ccccc1)C(=O)N[C@]1(C)CCCCCCC=CCCC[C@@](C)(C(=O)N[C@@H](CO)C(=O)N[C@H](C)C(=O)N[C@@H](C)C(N)=O)NC(=O)[C@H](CC2CCC2)NC(=O)[C@H](CCC(N)=O)NC(=O)[C@H](C)NC(=O)[C@H](Cc2c[nH]c3cc(Cl)ccc23)NC(=O)[C@H](Cc2ccc(O)cc2)NC(=O)[C@H](CCC(=O)O)NC1=O)[C@@H](C)O [MP-494] | 706 nM | > 50600 nM | 3.33 | 210 A^2 | 86.5 µM (≈ 173 µg/mL) |  |  |  |  |  |
| CC(=O)N[C@@H](CCCCN=[N+]=[N-])C(=O)NCCC(=O)N[C@H](C)C(=O)N[C@H](C(=O)N[C@@H](Cc1ccccc1)C(=O)N[C@]1(C)CCCCCCC=CCCC[C@@](C)(C(=O)N[C@@H](CO)C(=O)N[C@@H](C)C(=O)N[C@@H](C)C(N)=O)NC(=O)[C@H](CC2CCC2)NC(=O)[C@H](CCC(N)=O)NC(=O)[C@H](C)NC(=O)[C@H](Cc2c[nH]c3ccccc23)NC(=O)[C@H](Cc2ccc(O)cc2)NC(=O)[C@H](CCC(=O)O)NC1=O)[C@@H](C)O [MP-7470] | > 10000 nM | > 50000 nM | 2.72 | 228 A^2 | 90 µM (≈ 174 µg/mL) |  |  |  |  |  |
| CC(=O)N[C@@H](CCCCN=[N+]=[N-])C(=O)NCCC(=O)N[C@@H](CC(C)C)C(=O)N[C@H](C(=O)N[C@@H](Cc1ccccc1)C(=O)N[C@]1(C)CCCCCCC=CCCC[C@@](C)(C(=O)N[C@@H](CO)C(=O)N[C@@H](C)C(=O)N[C@@H](C)C(N)=O)NC(=O)[C@H](CC2CCC2)NC(=O)[C@@H]2CCCN2C(=O)[C@H](C)NC(=O)[C@H](Cc2c[nH]c3ccccc23)NC(=O)[C@H](Cc2ccc(O)cc2)NC(=O)[C@H](CCC(=O)O)NC1=O)[C@@H](C)O [MP-260] (Ac-[Lys(N3)][βAla]LTF[R8]EYWAP[Cba][S5]SAA-NH2; staple 6-13) | 246 nM | > 50600 nM |  | 197 A^2 |  | Poorly Behaved | Poorly Behaved |  |  |  |
| CC(=O)N[C@@H](CCCCN=[N+]=[N-])C(=O)NCCC(=O)N[C@@H](CC(C)C)C(=O)N[C@H](C(=O)N[C@@H](Cc1ccccc1)C(=O)N[C@]1(C)CCCCCCC=CCCC[C@@](C)(C(=O)N[C@@H](CO)C(=O)N[C@@H](C)C(=O)N[C@@H](C)C(N)=O)NC(=O)[C@H](CC2CCC2)NC(=O)[C@H](CCC(N)=O)NC(=O)[C@H](C)NC(=O)[C@H](Cc2c[nH]c3ccccc23)NC(=O)[C@H](Cc2ccc(O)cc2)NC(=O)CNC1=O)[C@@H](C)O [MP-210] (Ac-[Lys(N3)][βAla]LTF[R8]GYWAQ[Cba][S5]SAA-NH2; staple 6-13) | 279 nM | > 50600 nM | 3.35 | 198 A^2 | 2 µM (≈ 3.8 µg/mL) |  |  |  |  |  |
| CC(=O)N[C@@H](CCCCN=[N+]=[N-])C(=O)NCCC(=O)N[C@@H](CC(C)C)C(=O)N[C@H](C(=O)N[C@@H](Cc1ccccc1)C(=O)N[C@]1(C)CCCCCCC=CCCC[C@@](C)(C(=O)N[C@H](C)C(=O)N[C@@H](C)C(=O)N[C@@H](C)C(N)=O)NC(=O)[C@H](CC2CCC2)NC(=O)[C@H](CCC(N)=O)NC(=O)[C@H](C)NC(=O)[C@H](Cc2c[nH]c3ccccc23)NC(=O)[C@H](Cc2ccc(O)cc2)NC(=O)[C@H](CCC(=O)O)NC1=O)[C@@H](C)O [MP-475] (Ac-[Lys(N3)][βAla]LTF[R8]EYWAQ[Cba][S5][dA]AA-NH2; staple 6-13) | 155 nM | > 50000 nM | 2.92 | 224 A^2 | 17 µM (≈ 33.2 µg/mL) |  |  |  |  |  |
| CC(=O)N[C@@H](CCCCN=[N+]=[N-])C(=O)NCCC(=O)N[C@@H](CC(C)C)C(=O)N[C@H](C(=O)N[C@@H](Cc1ccccc1)C(=O)N[C@]1(C)CCCCCCC=CCCC[C@@](C)(C(=O)N[C@@H](CO)C(=O)N[C@@H](C)C(=O)N[C@@H](C)C(N)=O)NC(=O)[C@H](CC2CCC2)NC(=O)[C@H](CCC(N)=O)NC(=O)[C@H](C)NC(=O)[C@H](Cc2c[nH]c3ccccc23)NC(=O)[C@H](Cc2ccc(O)cc2)NC(=O)[C@@H](C)NC1=O)[C@@H](C)O [MP-473] (Ac-[Lys(N3)][βAla]LTF[R8][dA]YWAQ[Cba][S5]SAA-NH2; staple 6-13) | 197 nM | > 50000 nM | 3.49 | 213 A^2 |  |  | Poorly Behaved |  |  |  |
| CC(=O)N[C@@H](CCCCN=[N+]=[N-])C(=O)NCCC(=O)N[C@@H](CC(C)C)C(=O)N[C@@H](CCCCNC(=N)N)C(=O)N[C@@H](Cc1ccccc1)C(=O)N[C@]1(C)CCCCCCC=CCCC[C@@](C)(C(=O)N[C@@H](CO)C(=O)N[C@@H](C)C(=O)N[C@@H](C)C(N)=O)NC(=O)[C@H](CC2CCC2)NC(=O)[C@H](CCC(N)=O)NC(=O)[C@H](C)NC(=O)[C@H](Cc2c[nH]c3ccccc23)NC(=O)[C@H](Cc2ccc(O)cc2)NC(=O)[C@H](CCC(=O)O)NC1=O [MP-6897] (Ac-[Lys(N3)][βAla]L[hArg]F[R8]EYWAQ[Cba][S5]SAA-NH2; staple 6-13) | 1510 nM | > 50600 nM | 2.94 | 210 A^2 | 9 µM (≈ 18.4 µg/mL) |  |  |  |  |  |
